Measured values reported in US7560458B2, “Triazolopyrimidine derivatives as glycogen synthase kinase 3 inhibitors” (Janssen Pharmaceutica, N.V., priority 2003, dated 2009).

Key:
GSK3β = GSK3β (Homo sapiens, UniProt P49841); test: GSK3beta assay (SPA, biotinylated phosphorylated CREB peptide, ATP-P33); format: biochemical; settings: −log IC50 (M); given as ranges (>8; 7-8; <7); read-out: pIC50 (GSK3beta) (converted)
In short: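 Radiometric SPA at room temperature, pH 7.4 Tris/MgCl2/DTT/BSA/glycerol, with 5.7 ng/μl GSK3β, 5 μM biotinylated phospho-CREB peptide, 1 μM ATP plus 33P-ATP for 1 h. Stopped with streptavidin SPA beads, counted after overnight settling; % inhibition versus no-compound control, IC50 from dose-response curve.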

GSK3alpha = GSK3alpha (Homo sapiens, UniProt P49840); test: GSK3alpha assay (same as the GSK3beta assay, GSK3alpha 0.25 ng/μl); format: biochemical; settings: −log IC50 (M); given as ranges (>8; 7-8; <7); read-out: pIC50 (GSK3alpha) (converted)
GSK3alpha, sequence (P49840 whole entry, species assumed): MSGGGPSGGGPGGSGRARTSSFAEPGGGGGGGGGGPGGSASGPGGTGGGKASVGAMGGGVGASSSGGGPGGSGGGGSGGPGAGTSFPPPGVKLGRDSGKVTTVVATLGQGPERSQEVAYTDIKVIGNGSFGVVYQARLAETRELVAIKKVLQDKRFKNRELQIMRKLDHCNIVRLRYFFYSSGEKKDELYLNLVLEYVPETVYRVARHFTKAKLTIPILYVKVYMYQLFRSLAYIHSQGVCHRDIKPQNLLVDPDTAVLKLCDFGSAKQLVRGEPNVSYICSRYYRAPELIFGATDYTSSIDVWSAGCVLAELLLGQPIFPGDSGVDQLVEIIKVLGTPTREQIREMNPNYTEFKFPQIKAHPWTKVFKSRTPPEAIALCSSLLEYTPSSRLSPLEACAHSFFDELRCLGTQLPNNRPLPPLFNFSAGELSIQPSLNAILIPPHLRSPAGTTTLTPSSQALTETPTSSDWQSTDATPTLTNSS
In short: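 GSK3α at 0.25 ng/μl phosphorylated 5 μM biotinylated phospho-CREB peptide with 1 μM ATP and 33P-ATP for 1 h at room temperature, in 25 mM Tris pH 7.4 with 10 mM MgCl2 and 1 mM DTT. Phosphorylated peptide was captured on streptavidin SPA beads and counted. IC50 was taken from dose-response curves.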

GSK3β, sequence (P49841 whole entry, species assumed): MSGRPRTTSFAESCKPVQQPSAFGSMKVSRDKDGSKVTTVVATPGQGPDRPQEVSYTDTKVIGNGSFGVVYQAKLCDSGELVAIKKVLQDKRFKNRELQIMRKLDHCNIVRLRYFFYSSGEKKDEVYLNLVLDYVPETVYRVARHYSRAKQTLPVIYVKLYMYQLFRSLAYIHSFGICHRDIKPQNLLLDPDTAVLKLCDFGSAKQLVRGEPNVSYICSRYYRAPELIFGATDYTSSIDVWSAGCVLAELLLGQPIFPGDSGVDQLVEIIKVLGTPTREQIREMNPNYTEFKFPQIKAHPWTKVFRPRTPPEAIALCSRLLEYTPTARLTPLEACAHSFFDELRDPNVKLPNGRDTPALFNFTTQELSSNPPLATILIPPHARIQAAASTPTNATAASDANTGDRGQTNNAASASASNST

Row | IC50 (GSK3β) | IC50 (GSK3alpha) | melting point | Compound
1 | < 1e-08 M | < 1e-08 M | 177 °C | NS(=O)(=O)c1cccc(Nc2ncc3nnn(-c4cccc(F)c4)c3n2)c1 [Compound 1]
2 | < 1e-08 M | < 1e-08 M | 220 to 224 °C | CC(=O)c1cccc(Nc2ncc3nnn(-c4cccc(F)c4)c3n2)c1 [Compound 2]
3 | < 1e-08 M | < 1e-08 M | > 260 °C | N#Cc1ccc(Nc2ncc3nnn(-c4cccc(F)c4)c3n2)cc1Cl [Compound 3]
4 | < 1e-08 M | < 1e-08 M | 228 to 232 °C | COc1cc(OC)cc(-n2nnc3cnc(Nc4cccc(C#N)c4)nc32)c1 [Compound 6]
5 | < 1e-08 M | < 1e-08 M | 212 to 213 °C | Fc1cccc(-n2nnc3cnc(Nc4cccc(Br)c4)nc32)c1 [Compound 7]
6 | < 1e-08 M | < 1e-08 M | 228 to 230 °C | N#Cc1cccc(Nc2ncc3nnn(-c4cccc(F)c4)c3n2)c1 [Compound 8]
7 | < 1e-08 M | < 1e-08 M | 214 to 218.1 °C | CCOC(=O)/C=C/c1cccc(Nc2ncc3nnn(-c4cccc(F)c4)c3n2)c1 [Compound 9]
8 | < 1e-08 M | < 1e-08 M | > 250 °C | O=C(O)/C=C/c1cccc(Nc2ncc3nnn(-c4cccc(F)c4)c3n2)c1 [Compound 10]
9 | < 1e-08 M | < 1e-08 M | 150 to 154 °C | CC(O)c1cccc(Nc2ncc3nnn(-c4cccc(F)c4)c3n2)c1 (stereo not shown) [Compound 27]
10 | < 1e-08 M | < 1e-08 M | 142 to 146 °C | CC(C)Oc1cccc(Nc2ncc3nnn(-c4cccc(F)c4)c3n2)c1 [Compound 28]
11 | < 1e-08 M | < 1e-08 M | 228 to 231 °C | COc1cccc(-n2nnc3cnc(Nc4cccc(C#N)c4)nc32)c1 [Compound 55]
12 | < 1e-08 M | < 1e-08 M | > 250 °C | NS(=O)(=O)c1cccc(Nc2ncc3nnn(-c4cccc(-c5cnco5)c4)c3n2)c1 [Compound 57]
13 | < 1e-08 M | 1e-08 M | 158 to 162 °C | C=CCN(c1cccc(Nc2ncc3nnn(-c4cccc(CO)c4)c3n2)c1)S(C)(=O)=O [Compound 69]
14 |  |  | > 260 °C | CC(=O)NCc1cccc(Nc2ncc3nnn(-c4cccc(C(=O)O)c4)c3n2)c1 [Compound 76]
15 | < 1e-08 M | < 1e-08 M | 142 to 146 °C | COCc1cccc(-n2nnc3cnc(Nc4cccc([S+](C)[O-])c4)nc32)c1 (stereo not shown) [Compound 148]
16 | < 1e-08 M | < 1e-08 M | 168 to 172 °C | C[S+]([O-])c1cccc(Nc2ncc3nnn(-c4cccc(F)c4)c3n2)c1 (stereo not shown) [Compound 152]
17 | < 1e-08 M | < 1e-08 M | 148 °C | COCCOCc1cccc(-n2nnc3cnc(Nc4ccc(F)cc4)nc32)c1 [Compound 287]
18 | 1e-08 to 1e-07 M | 1e-08 to 1e-07 M | 137 °C | CN(C)CCCOc1ccc(Nc2ncc3nnn(-c4cccc(F)c4)c3n2)cc1 [Compound 297]
19 | < 1e-08 M | < 1e-08 M | 232 °C | COc1cc(Nc2ncc3nnn(-c4cccc(F)c4)c3n2)ccc1C(=O)O [Compound 298]
